“And” between values parts separate entries of the source, which are not always exact repeats. Identical values can stand only once. Like-named read-outs stand apart in the source and are kept apart here.
What was measured:
[1] = tested on: viral and bacterial neuraminidases; assay type: biochemical, influenza viruses, bacteria, human saliva; conditions: read-out: IC50, viral, bacterial and saliva neuraminidases
A/Udorn/72 virus = experiment: microbe, parasite or virus in culture; assay type: cell-based, influenza A virus; conditions: for activity at 0.25 µM: MDCK, read-out: Virus yield (progeny virus, % of control)
B/Johannesburg/99 virus = experiment: Virus growth inhibition assay in MDCK cells (progeny virus by plaque assay); assay type: cell-based, influenza B virus; conditions: for activity at 0.25 µM: read-out: Virus yield (progeny virus, % of control)
Protocol: The infectivity of viruses was determined by plaque assay as described below. Ten-fold serial dilutions of virus samples were made in Hanks balanced salt solution (HBSS; GIBCO, Gland Island, NY, USA) and 0.1 ml of the dilutions was inoculated on MDCK cell monolayers in 6-well tissue culture plates (Corning, Lowell, MA, USA). After adsorption of the virus onto the cells for 30 min at room temperature, 1.6 ml of Leibovitz’s L15 medium (GIBCO, Gland Island, NY, USA) containing 0.6% SeaKem ME agarose (Lonza, Basel, Switzerland), 1.5% gelatin (Nacalai, Kyoto, Japan) and 2.5 µg/ml TPCK-trypsin was added to each well and allowed to solidify. The plates were incubated for 3 days at 34°C and the number of plaques was counted. Infectivity was expressed as plaque forming units (pfu) per ml.
The inhibition of virus growth by neuraminidase inhibitors in the presence or absence of bacterial neuraminidase was assayed by measuring the released progeny virus in the culture fluid of infected cells. MDCK cells seeded on 12-well tissue culture plates were inoculated with 50 µl of virus suspension at a MOI of 0.001 or 0.01. After the adsorption for 1 h on ice, 1 ml MEM supplemented with 2.5 µg/ml TPCK-trypsin containing neuraminidase inhibitor and/or bacterial neuraminidase was added to each well. At the indicated times of incubation at 37°C in 5% CO2, culture media were harvested and the virus titers, performed in triplicate wells, were determined by plaque assay.

[2] = tested on: neuraminidase of influenza viruses (A/Udorn/72(H3N2), A/Chiba/2009(H1N1)pdm and B/Johannesburg/99); assay type: biochemical, influenza virus
[3] = tested on: bacterial and salivary neuraminidases (S. pneumoniae, saliva, A. ureafaciens, V. cholerae RDE); assay type: biochemical, human saliva
[4] = Concentration of zanamivir in sputum after oral inhalation (clinical setting); assay type: in vivo; conditions: minutes after oral inhalation of 10 mg of zanamivir powder
[5] = parameters: method as in PMID 10858364; conditions: 6 h after oral inhalation of 10 mg of zanamivir powder; cited from earlier work

Compound | IC50 [1] [µM] | Effect on influenza virus production (A/Udorn/72 virus) | Restoration of virus production by S. pneumoniae culture supernatant (A/Udorn/72 virus) | Restoration of virus production by S. pneumoniae culture supernatant (B/Johannesburg/99 virus; 2.5 mM DANA + S. pneumoniae culture supernatant) | Effect on influenza virus production (B/Johannesburg/99 virus; 2.5 mM DANA, MDCK cells, MOI 0.001, 40 hpi) | Potency against influenza virus NA relative to bacterial neuraminidases [2] | Concentrations at which bacterial neuraminidases were inhibited ([3]; Figure 2A) | IC50 ([3]; range over S. pneumoniae, saliva, A. ureafaciens, V. cholerae RDE) [µM] | activity at 0.25 µM (A/Udorn/72 virus; Influenza A virus) [%] | activity at 0.25 µM (A/Udorn/72 virus; Streptococcus pneumoniae) [%] | activity at 0.25 µM (B/Johannesburg/99 virus; 250 nM zanamivir + Streptococcus pneumoniae culture supernatant (6 µunits/ml neuraminidase activity), MDCK cells, MOI 0.001, 40 hpi) [%] | activity at 0.25 µM (B/Johannesburg/99 virus; Influenza B virus, 250 nM zanamivir, MDCK cells, MOI 0.001, 40 hpi) [%] | Concentration of zanamivir in sputum, calculated [4] | Concentration of zanamivir in sputum [5]
CC(=O)N[C@H]1[C@H]([C@H](O)[C@H](O)CO)OC(C(=O)O)=C[C@@H]1O [DANA, 2-Deoxy-2,3-dehydro-N-acetylneuraminic acid] | 2 to 20 | inhibited influenza virus production | not restored | not restored | inhibited influenza virus production |  |  |  |  |  |  |  |  | 
CC(=O)N[C@H]1[C@H]([C@H](O)[C@H](O)CO)OC(C(=O)O)=C[C@@H]1N=C(N)N [zanamivir, Zanamivir] |  |  |  |  |  | approximately a million | above 10 µM | 100 to 5000 | 2 | 84 | 92 | 0.4 | ≤ 5,870 ng/ml and ≤ 17.5 µM | ≤ 1,441 ng/ml and ≤ 4.3 µM
